Experimental data taken from patent US11298298B2, “Method for producing nonaqueous composition for external use on skin” (CHANEL PARFUMS BEAUTE, priority 2017, dated 2022).

Assay: Particle size measurement by dynamic light scattering
Format: physicochemical
Conditions: steps (a) to (c) without palmitoyl-L-carnitine chloride
Description: [1] Particle Size Measurement
The particle size of particles contained in the nonaqueous composition for external use on the skin 1 week after preparation was measured by the dynamic light scattering method. Specifically, the measurement was performed on the number mode using a nanoparticle analysis system (Zetasizer Nano ZSP model manufactured by Malvern Instruments Ltd.).

Particle size of composition containing particles of the surfactant alone: about 2.5 nm
Substance: sucrose erucic acid ester
